Experimental data published in patent US10875872B2, “Heteroaryl amide compounds as sting activators” (Incyte Corporation, priority 2018, dated 2020).

Tested on: IRF3
Experiment: IRF3 activation assay in THP-1 Dual cells (QUANTI-Blue reporter)
Assay type: cell-based
Details: Homo sapiens, THP1-Dual, 24 hours incubation, culture supernatant, absorbance at 620-655 nm
Protocol: THP-1 Dual Cells (Invivogen) were maintained in RPMI1640 medium with addition of 10% FBS, 100 μg/mL zeocin, 10 μg/mL blasticidin. Cells were added in a 96-well flat bottom assay plate at 100,000 per well in 100 μL complete RPMI medium. Test compounds were prepared by serial dilution in complete RPMI medium and 100 μL test compounds were transferred to each corresponding well. The assay plate was incubated at 37° C., 5% CO2 for 24 hours. After the overnight incubation, 20 μL of the culture supernatants were collected, followed by addition of 180 μL of QUANTI-Blue (Invivogen) to assess IRF3 activity. The amount of IRF3 activation was assessed by reading the absorbance at 620-655 nm with a microplate reader 2 hours later. The culture supernatant from the untreated THP-1 cells was used as the negative control. To determine the NF-κB activation, another 20 μL of culture supernatant were transferred to a 96-well white plate, followed by addition of 50 μL of Quanti-Lucim assay solution (Invivogen). The amount of NF-κB activation induced by the test compounds were determined by the luminescence above the untreated control. EC50 determination was performed by fitting the curve of percent control activity versus the log of the compound concentration using the GraphPad Prism 6.0 software.

Question: Which EC50 does the source give for `CCn1nc(C)cc1C(=O)Nc1nc2cc(C(N)=O)cc(C)c2n1C/C=C/Cn1c(NC(=O)c2cc(C)nn2CC)nc2cc(C(N)=O)c3c(c21)OCCO3` [Example 1, (E)-1-(4-(5-carbamoyl-2-(1-ethyl-3-methyl-1H-pyrazole-5-carboxamido)-7-methyl-1H-benzo[d]imidazol-1-yl)but-2-en-1-yl)-2-(1-ethyl-3-methyl-1H-pyrazole-5-carboxamido)-7,8-dihydro-1H-[1,4]dioxino[2′,3′:3,4]benzo[1,2-d]imidazole-5-carboxamide] here?
Answer: The EC50 was 0.5 to 1 µM.

Question: How did the EC50 turn out when `CCn1nc(C)cc1C(=O)Nc1nc2cc(C(N)=O)cc(C)c2n1C/C=C/Cn1c(NC(=O)c2cc(C)nn2CC)nc2cc(C(N)=O)c3ccoc3c21` [Example 2, (E)-1-(4-(5-carbamoyl-2-(1-ethyl-3-methyl-1H-pyrazole-5-carboxamido)-7-methyl-1H-benzo[d]imidazol-1-yl)but-2-en-1-yl)-2-(1-ethyl-3-methyl-1H-pyrazole-5-carboxamido)-1H-benzofuro[6,7-d]imidazole-5-carboxamide] was run?
Answer: The EC50 was under 0.1 µM.

Question: How did the EC50 turn out when `CCn1nc(C)cc1C(=O)Nc1nc2cc(C(N)=O)cc(OCCCOC(=O)NCCC(=O)O)c2n1C/C=C/Cn1c(NC(=O)c2cc(C)nn2CC)nc2cc(C(N)=O)c3ccoc3c21` [Example 3, (E)-3-(((3-((5-carbamoyl-1-(4-(5-carbamoyl-2-(1-ethyl-3-methyl-1H-pyrazole-5-carboxamido)-1H-benzofuro[6,7-d]imidazol-1-yl)but-2-en-1-yl)-2-(1-ethyl-3-methyl-1H-pyrazole-5-carboxamido)-1H-benzo[d]imidazol-7-yl)oxy)propoxy)carbonyl)amino)propanoic acid] was run?
Answer: The EC50 was under 0.1 µM.
